Our source for the viability, T/C and IC50 values is PubChem BioAssay AID1963837 (Molecular Pharmacology Branch, DTP, NCI, 2024).

Several values for one entry are separate records, joined by “and”; a condition that tells them apart may be missing. Identical values can stand only once.

In this test the test system is 843126-344-R-J1-PDC complex spheroid viability. Nature of the test: Anticancer human tumor 843126-344-R-J1-PDC patient-derived melanoma cell line growth inhibition [POLQ]. The note with it: for viability, T/C: stronger effect = lower value. How it is done: Multicellular complex tumor spheroid response to Polymerase (POL) inhibitors (novobiocin, ART-558, RP6685) in combination with a variety of drugs and investigational agents in selected tumor cell lines
The POL inhibitors (novobiocin, ART-558, and RP6685) were evaluated both individually and in combination with standard of care and investigational anticancer small molecules within a complex spheroid model of solid tumors. . Complex spheroids include a stromal component modeled by human endothelial cells (HUVEC) and fibroblasts modeled by human mesenchymal stem cells (MSCs). The concentration ranges selected for each drug and investigational agent were based upon clinically achievable concentrations if the clinical Cmax of the agent was known.
Compounds. The drugs and investigational agents: novobiocin (NSC847541), ART-558 (NSC835418), RP-6685 (NSC848927), peposertib (NSC802822), ceralasertib (NSC780249), elimusertib (NSC800525), camonsertib (NSC841442), AZD-1390 (NSC803789), olaparib (NSC753686), talazoparib (NSC767125), rucaparib (NSC756644), sotorasib (NSC818433), MRTX-1133 (NSC836407), SN-38 (NSC673596), topotecan (NSC609699), epotoside (NSC141540), doxorubicin (NSC123127), gemcitabine (NSC613327), 5-fluorouracil (NSC19893), paclitaxel (NSC125973), vemurafenib (NSC761431), MSA-2 (NSC828583), SN-011 (NSC837082), adavosertib (NSC754352), prexasertib (NSC758257), carboplatin (NSC241240) and oxaliplatin (NSC266046), were obtained from the National Cancer Institute (NCI) Developmental Therapeutics Program Chemical Repository (21). The FDA-approved anticancer drug set is available from the Developmental Therapeutics Program at https://dtp.cancer.gov/organization/dscb/obtaining/. […] The stock solutions were prepared in dimethyl sulfoxide (DMSO, Sigma-Aldrich, St. Louis, MO, cat. D2650), except for the platinum compounds which were prepared in saline (Quality Biological, Gaithersburg, MD, cat. 114-055-101), at 800-fold the tested concentration and stored at -70 degrees C prior to their use. All drugs and investigational agents were tested over a range starting from a high concentration at or near the clinical Cmax and decreasing in half-log increments. If the clinical Cmax for an agent had not been determined, the highest concentration tested was 10 microM, except for SN-38, which was tested at a high concentration of 1 microM.
Cell Culture. All cells were maintained in an incubator at 37 degrees C and 5% CO2 with 95% humidity. The PDC lines were cultured according to standard operating procedures established by the NCI PDMR (https://pdmr.cancer.gov). Table 3 of the manuscript, lists the cell lines along with the number of the three cell types plated to form the mct-spheroids and media for tumor cell growth. After thawing, all PDC lines, except 997537-175-T-J1-PDC and 415267-285-R-J2-PDC, were cultured in Matrigel-coated flasks prepared with a working solution of 1X Ham's F-12 nutrient mix, without supplementation (Thermo Fisher Scientific, cat. 11765054), 100 U/mL penicillin-streptomycin (Thermo Fisher Scientific, cat. 15140122), and 2.5% Matrigel (Corning Inc., Corning, NY, cat. 354248) for the first three passages. The two PDC lines 997537-175-T-J1-PDC and 415267-285-R-J2-PDC were cultured on uncoated flasks. The 857933-349-R-J2-PDC line was cultured in 6C/Colon 1B media containing advanced DMEM/F-12 (Thermo Fisher Scientific, cat. 12634028), 10 mM HEPES (Thermo Fisher Scientific, cat. 15630080), 1X GlutaMAX supplement (Thermo Fisher Scientific, cat. 35050061), 0.1 mg/mL primocin (InvivoGen, San Diego, CA, cat. ant-pm-2), 10% defined fetal bovine serum, heat inactivated (HyClone Laboratories Inc., Logan, UT, cat. SH30070.03HI), 50% L-WRN conditioned media (ATCC, cat. CRL-3276), 1.25 mM N-Acetyl-L-cysteine (Sigma-Aldrich, cat. A9165), 10 mM nicotinamide (Sigma-Aldrich, cat. N0636), 1X B-27 supplement (Thermo Fisher Scientific, cat. 17504044), 1X N-2 supplement (Thermo Fisher Scientific, cat. […]
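For viability, T/C in this document: spheroids exposed to drugs for seven days before readout.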

For the compound `CCCS(=O)(=O)Nc1ccc(F)c(C(=O)c2c[nH]c3ncc(-c4ccc(Cl)cc4)cc23)c1F`, the viability, T/C was 101% and 86.2% (compound 0.0316 µM); 91.1% and 76% (compound 0.1 µM); 87.4% and 96% (compound 0.316 µM); 85.6% and 76.9% (compound 1 µM); 72.9% and 74.4% (compound 3.16 µM); 91.5% and 59.1% (compound 10 µM). Also, the IC50 (curve of compound) is more than 10 µM.
As to `Nc1ccc(C#CCN(C(=O)Cc2ncc(C(F)(F)F)cc2C(F)(F)F)c2ccc(F)cc2)nn1`, the viability, T/C is, setting by setting: (compound 0.0316 µM) 98.2% [middle of 13 runs]; (compound 0.1 µM) 95.1% [middle of 13 runs]; (compound 0.316 µM) 97.8% [middle of 13 runs]; (compound 1 µM) 92.4% [middle of 12 runs]; (compound 3.16 µM) 90.4% [middle of 13 runs]; (compound 10 µM) 87.2% [middle of 13 runs]. The concentration for half-maximal inhibition (IC50) (compound alone, run of 01/19/2024) is more than 10 µM.
As for `CNCc1ccc(-c2[nH]c3cc(F)cc4c3c2CCNC4=O)cc1` + Nc1ccc(C#CCN(C(=O)Cc2ncc(C(F)(F)F)cc2C(F)(F)F)c2ccc(F)cc2)nn1, the IC50 (curve of first compound, second compound 0.0316 µM) was more than 10 µM; the IC50 (curve of first compound, second compound 0.1 µM) is more than 10 µM; the IC50 (curve of first compound, second compound 0.316 µM) is more than 10 µM; the IC50 (curve of first compound, second compound 1 µM) is more than 10 µM; the IC50 (curve of first compound, second compound 3.16 µM) is more than 10 µM; the half-maximal inhibitory concentration (IC50) (curve of first compound, second compound 10 µM) was more than 10 µM. In addition, the viability, T/C (second compound 0.0316 µM, first compound 0.0316 µM) was 104%; the viability, T/C (second compound 0.0316 µM, first compound 0.1 µM) was 92.1%; the viability, T/C (second compound 0.0316 µM, first compound 0.316 µM) was 100%; the viability, T/C (second compound 0.0316 µM, first compound 1 µM) was 108%; the viability, T/C (second compound 0.0316 µM, first compound 3.16 µM) was 98.5%; the viability, T/C (second compound 0.0316 µM, first compound 10 µM) was 83.4%. Also, the viability, T/C (second compound 0.1 µM, first compound 0.0316 µM) is 96.4%; the viability, T/C (second compound 0.1 µM, first compound 0.1 µM) was 103%; the viability, T/C (second compound 0.1 µM, first compound 0.316 µM) is 101%; the viability, T/C (second compound 0.1 µM, first compound 1 µM) was 95%; the viability, T/C (second compound 0.1 µM, first compound 3.16 µM) is 94.3%; the viability, T/C (second compound 0.1 µM, first compound 10 µM) is 88.5%. Also, the viability, T/C reads like this: (second compound 0.316 µM, first compound 0.0316 µM) 95.8%; (second compound 0.316 µM, first compound 0.1 µM) 105%; (second compound 0.316 µM, first compound 0.316 µM) 97.3%; (second compound 0.316 µM, first compound 1 µM) 103%; (second compound 0.316 µM, first compound 3.16 µM) 94.4%; (second compound 0.316 µM, first compound 10 µM) 84.3%. Besides, the viability, T/C by setting is: (second compound 1 µM, first compound 0.0316 µM) 103%; (second compound 1 µM, first compound 0.1 µM) 103%; (second compound 1 µM, first compound 0.316 µM) 95.9%; (second compound 1 µM, first compound 1 µM) 117%; (second compound 1 µM, first compound 3.16 µM) 102%; (second compound 1 µM, first compound 10 µM) 86.3%. Besides, the viability, T/C is 92.6% (second compound 3.16 µM, first compound 0.0316 µM); 86.3% (second compound 3.16 µM, first compound 0.1 µM); 95.2% (second compound 3.16 µM, first compound 0.316 µM); 83.6% (second compound 3.16 µM, first compound 1 µM); 98.2% (second compound 3.16 µM, first compound 3.16 µM); 90.9% (second compound 3.16 µM, first compound 10 µM). The viability, T/C is, setting by setting: (second compound 10 µM, first compound 0.0316 µM) 91.3%; (second compound 10 µM, first compound 0.1 µM) 89.1%; (second compound 10 µM, first compound 0.316 µM) 91.9%; (second compound 10 µM, first compound 1 µM) 92.9%; (second compound 10 µM, first compound 3.16 µM) 91.5%; (second compound 10 µM, first compound 10 µM) 85.9%.
With `C#Cc1c(F)ccc2cc(O)cc(-c3ncc4c(N5CC6CCC(C5)N6)nc(OCC56CCCN5CC(F)C6)nc4c3F)c12` (stereo not drawn), the viability, T/C is, setting by setting: (compound 0.0316 µM) 90.2% and 115% and 80.5%; (compound 0.1 µM) 116% and 88.3% and 91.5%; (compound 0.316 µM) 96.1% and 97.6% and 95.8%; (compound 1 µM) 78.2% and 100% and 82.2%; (compound 3.16 µM) 95.1% and 96.5% and 95.2%; (compound 10 µM) 87.4% and 85.2% and 85.5%. In addition, the concentration for half-maximal inhibition (IC50) (curve of compound) is more than 10 µM.

Broadly, the viability, T/C is the ratio of treated to control. As usually defined, the IC50 is the midpoint of a concentration-inhibition curve.
